Measured values taken from patent US7713994B2 (Wyeth LLC, priority 2005, dated 2010).
Like-named read-outs stand apart in the source and are kept apart here.

Key:
cyclin D1/cdk 4 enzyme = target: T1, cyclin D1/cdk 4 enzyme (Homo sapiens, UniProt P11802); test: CDK4 ELISA kinase assay (phospho-Rb ser 795 detection); format: biochemical
T1 construct: made in house; host or cells: Sf9 insect cells, recombinant baculovirus
Procedure, shortened: (§1)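 Screening was done at 10 ug/ml compound. Each partially purified cyclin/CDK complex, produced in baculovirus-infected Sf9 cells, phosphorylated a coated GST-Rb C-terminal fragment with 200 μM ATP, and Ser795 phosphorylation was quantified by HRP-ELISA at 450 nm.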

MCF-7 = test: Cytotoxicity assay (SRB), MCF-7; format: cell-based; details: Homo sapiens, MCF7, 72 h, MCF-7 cells, SRB, read-out: In Vitro Cellular Activity IC50 MCF-7
Procedure, shortened: (§2)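 Percentage survival is derived from SRB absorbance (540 nm) versus untreated cells. Exposures were 3 days, except 6 days for BT474, at 37 °C and 7% CO2.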

LoVo = test: Cytotoxicity assay (SRB), LoVo; format: cell-based; details: Homo sapiens, LoVo, 72 h, LoVo cells, SRB, read-out: In Vitro Cellular Activity IC50 LOVO
Procedure, shortened: as §2

HCT-116 = test: Cytotoxicity assay (SRB), HCT-116; format: cell-based; details: Homo sapiens, HCT-116, 72 h, HCT116 cells, SRB, read-out: In Vitro Cellular Activity IC50 HCT116
Procedure, shortened: as §2

cyclin B/CDK1 enzyme = target: T2, cyclin B/CDK1 enzyme (Homo sapiens, UniProt P06493); test: CDK1 ELISA kinase assay (phospho-Rb ser 795 detection); format: biochemical
T2 construct: purchased New England BioLabs; host or cells: Sf9 insect cells, recombinant baculovirus
Procedure, shortened: as §1

BT474 = test: Cytotoxicity assay (SRB), BT474; format: cell-based
Procedure, shortened: as §2

cyclin E/CDK2 enzyme = target: T3, cyclin E/CDK2 enzyme (Homo sapiens, UniProt P24941); test: CDK2 ELISA kinase assay (phospho-Rb ser 795 detection); format: biochemical
T3 construct: made in house; host or cells: Sf9 insect cells, recombinant baculovirus
Procedure, shortened: as §1

[1] = In Vitro Enzyme Assays, 200 μM ATP, read-out: CDK4 IC50
[2] = In Vitro Enzyme Assays, read-out: CDK1 IC50
[3] = Homo sapiens, BT-474, 144 h, BT474 cells, SRB, 6 days; read-out: In Vitro Cellular Activity IC50 BT474
[4] = In Vitro Enzyme Assays, read-out: CDK2 IC50
[5] = In Vitro Enzyme Assay, cyclin D1/cdk 4, read-out: CDK4 IC50
[6] = In Vitro Enzyme Assay, cyclin B/CDK1, read-out: CDK1 IC50
[7] = Homo sapiens, BT-474, 144 h, BT474 cells, 6 days, SRB; read-out: In Vitro Cellular Activity IC50 BT474
[8] = In Vitro Enzyme Assay, cyclin E/CDK2, read-out: CDK2 IC50

T1 sequence (P11802 whole entry, species assumed): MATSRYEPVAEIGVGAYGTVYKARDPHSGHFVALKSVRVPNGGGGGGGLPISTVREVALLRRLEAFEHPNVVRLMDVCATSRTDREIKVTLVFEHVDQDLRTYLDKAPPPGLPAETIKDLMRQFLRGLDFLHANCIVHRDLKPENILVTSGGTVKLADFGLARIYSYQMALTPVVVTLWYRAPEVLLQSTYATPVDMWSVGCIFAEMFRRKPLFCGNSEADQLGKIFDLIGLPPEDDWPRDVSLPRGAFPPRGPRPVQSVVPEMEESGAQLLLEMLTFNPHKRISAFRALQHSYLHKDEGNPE
T1 sequence (P24385 whole entry partner, species assumed): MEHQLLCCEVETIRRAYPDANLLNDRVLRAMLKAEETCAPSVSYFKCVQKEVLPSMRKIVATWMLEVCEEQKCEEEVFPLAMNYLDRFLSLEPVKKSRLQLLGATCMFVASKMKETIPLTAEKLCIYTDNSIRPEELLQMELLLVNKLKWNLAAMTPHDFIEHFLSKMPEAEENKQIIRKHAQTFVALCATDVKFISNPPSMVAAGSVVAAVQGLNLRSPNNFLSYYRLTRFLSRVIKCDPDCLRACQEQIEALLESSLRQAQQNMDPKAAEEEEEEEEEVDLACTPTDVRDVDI
T2 sequence (P06493 whole entry): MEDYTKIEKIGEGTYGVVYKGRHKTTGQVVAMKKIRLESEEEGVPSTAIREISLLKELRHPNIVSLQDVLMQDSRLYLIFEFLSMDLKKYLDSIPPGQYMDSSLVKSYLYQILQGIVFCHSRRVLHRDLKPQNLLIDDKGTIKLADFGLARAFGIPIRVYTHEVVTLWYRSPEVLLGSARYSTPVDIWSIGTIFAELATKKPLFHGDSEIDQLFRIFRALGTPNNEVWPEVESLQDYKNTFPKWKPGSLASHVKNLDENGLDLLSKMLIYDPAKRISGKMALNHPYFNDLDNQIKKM
T2 sequence (P14635 whole entry partner): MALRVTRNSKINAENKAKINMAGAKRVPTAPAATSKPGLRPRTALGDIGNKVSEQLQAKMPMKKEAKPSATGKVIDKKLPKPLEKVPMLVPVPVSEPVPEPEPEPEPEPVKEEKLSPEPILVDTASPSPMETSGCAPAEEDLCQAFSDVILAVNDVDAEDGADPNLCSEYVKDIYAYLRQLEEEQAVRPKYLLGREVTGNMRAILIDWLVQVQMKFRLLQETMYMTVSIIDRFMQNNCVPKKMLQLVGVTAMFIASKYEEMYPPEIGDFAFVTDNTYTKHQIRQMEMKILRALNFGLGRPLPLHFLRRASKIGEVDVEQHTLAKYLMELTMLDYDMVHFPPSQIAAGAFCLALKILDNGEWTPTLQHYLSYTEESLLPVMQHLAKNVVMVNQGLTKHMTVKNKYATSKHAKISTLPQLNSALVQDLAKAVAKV

Row | Structure (SMILES) | IC50 (cyclin D1/cdk 4 enzyme; [1]) [µM] | IC50 (MCF-7; three days) [µM] | IC50 (LoVo; three days) [µM] | IC50 (HCT-116; three days) [µM] | IC50 (cyclin B/CDK1 enzyme; [2]) [µM] | IC50 (BT474; [3]) [µM] | IC50 (cyclin E/CDK2 enzyme; [4]) [µM] | IC50 (cyclin D1/cdk 4 enzyme; [5]) [µM] | IC50 (MCF-7; 3 days) [µM] | IC50 (LoVo; 3 days) [µM] | IC50 (HCT-116; 3 days) [µM] | IC50 (cyclin B/CDK1 enzyme; [6]) [µM] | IC50 (BT474; [7]) [µM] | IC50 (cyclin E/CDK2 enzyme; [8]) [µM]
1 | CCCN1CCN(c2ccc(N/C=C3\C(=O)NC(=O)c4ccc(I)cc43)cc2)CC1 [Example 388, (4Z)-6-Iodo-4-({[4-(4-propylpiperazin-1-yl)phenyl]amino}methylene)isoquinoline-1,3(2H,4H)-dione] | 2 | 3.1 | 5.5 | 2.7 | > 50 | 3.9 | > 50 |  |  |  |  |  |  | 
2 | O=C1NC(=O)c2ccc(-c3ccccc3Cl)cc2C1=CNCc1ccc(O)c(O)c1 [Example 780, 6-(2-Chloro-phenyl)-4-[(3,4-dihydroxy-benzylamino)-methylene]-4H-isoquinoline-1,3-dione] |  |  |  |  |  |  |  | 0.67 | 18.9 | 18.2 | 14.4 | 23.1 | 17.7 | 3.8
3 | CN1CCN(c2ccc(NC=C3C(=O)NC(=O)c4ccc(C=CCCCO)cc43)cc2)CC1 [Example 797, 6-(5-Hydroxy-pent-1-enyl)-4-{[4-(4-methyl-piperazin-1-yl)-phenylamino]-methylene}-4H-isoquinoline-1,3-dione] |  |  |  |  |  |  |  | 0.9 | 6.7 | 6.3 | 6.5 | > 50 | 19.3 | > 50
4 | O=C1NC(=O)c2ccc(-c3nccs3)cc2/C1=C/Nc1ccc(CN2CCC[C@H]2CO)cc1 [Example 472, 4-{[4-(2-Hydroxymethyl-pyrrolidin-1-ylmethyl)-phenylamino]-methylene}-6-thiazol-2-yl-4H-isoquinoline-1,3-dione] |  |  |  |  |  |  |  | 0.6 | 14.2 | 8.9 | 5 | > 50 | 9.1 | > 50
5 | O=C1NC(=O)c2ccc(I)cc2/C1=C/Nc1ccc(N2CCC(C(=O)O)CC2)cc1 [Example 431, 1-(4-{[(Z)-(6-Iodo-1,3-dioxo-2,3-dihydroisoquinolin-4(1H)-ylidene)methyl]amino}phenyl)piperidine-4-carboxylic acid] | 1.3 |  |  |  | 8.6 |  | 4.1 |  | 8.8 | 5.8 | 6.1 |  | 6.4 | 
6 | C=CC(=O)Nc1ccc2c(c1)/C(=C/Nc1ccc(N3CCN(C)CC3)cc1)C(=O)NC2=O [Example 385, N-[(4Z)-4-({[4-(4-Methylpiperazin-1-yl)phenyl]amino}methylene)-1,3-dioxo-1,2,3,4-tetrahydroisoquinolin-6-yl]acrylamide] | 14.7 | 1.6 | 3.5 | 1.4 | 11.5 | 0.39 | 20.7 |  |  |  |  |  |  | 
7 | CN1CCN(c2ccc(NC=C3C(=O)NC(=O)c4ccc(-c5cc[nH]c5)cc43)cc2)CC1 [Example 673, 4-{[4-(4-Methyl-piperazin-1-yl)-phenylamino]-methylene}-6-(1H-pyrrol-3-yl)-4H-isoquinoline-1,3-dione] |  |  |  |  |  |  |  | 1 | 5.8 | 5 | 3 | > 50 | 8.5 | > 50
8 | O=C1NC(=O)c2ccc(-c3cccc(C(F)(F)F)c3)cc2C1=CNCc1ccc(O)c(O)c1 [Example 773, 4-[(3,4-Dihydroxy-benzylamino)-methylene]-6-(3-trifluoromethyl-phenyl)-4H-isoquinoline-1,3-dione] |  |  |  |  |  |  |  | 1.18 | 12.6 | 14.4 | 13.7 | > 50 | 20.9 | 16.5
9 | CCCOc1cnc(CNC=C2C(=O)NC(=O)c3ccc(-n4cccc4)cc32)cc1O [Example 363, 4-{[(4-Hydroxy-5-propoxy-pyridin-2-ylmethyl)-amino]-methylene}-6-pyrrol-1-yl-4H-isoquinoline-1,3-dione] | 0.006 | 2.4 | 2.3 | 3.2 | > 50 | 1.5 | 14.7 |  |  |  |  |  |  | 
10 | O=C1NC(=O)c2ccc(Br)cc2/C1=C/Nc1ccc(CN2CCC(O)CC2)cc1 [compound 75] | 0.29 | 4.3 | 6 | 5.8 | > 50 | 9.7 | 7.2 |  |  |  |  |  |  | 
11 | CN1CCN(c2ccc(N/C=C3\C(=O)NC(=O)c4ccc(-c5ccc(F)cc5)cc43)cc2)CC1 [Example 263, (4Z)-6-(4-Fluorophenyl)-4-({[4-(4-methylpiperazin-1-yl)phenyl]amino}methylene)-isoquinoline-1,3(2H,4H)-dione] | 0.5 | 3.1 | 2.9 | 1.3 | > 50 | 2.9 | > 50 |  |  |  |  |  |  | 
12 | CN1CCN(c2ccc(NC=C3C(=O)NC(=O)c4ccc(-c5ccc[nH]5)cc43)cc2)CC1 [Example 672, 4-{[4-(4-Methyl-piperazin-1-yl)-phenylamino]-methylene}-6-(1H-pyrrol-2-yl)-4H-isoquinoline-1,3-dione] |  |  |  |  |  |  |  | 0.64 | 3.2 | 2.9 | 3.4 | > 50 | 7.9 | > 50
13 | O=Cc1ccc(-c2ccc3c(c2)/C(=C/Nc2ccc(CN4CCCCC4)cc2)C(=O)NC3=O)o1 [Example 492, 5-[(4Z)-1,3-Dioxo-4-({[4-(piperidin-1-ylmethyl)phenyl]amino}methylene)-1,2,3,4-tetrahydroisoquinolin-6-yl]-2-furaldehyde] |  |  |  |  |  |  |  | 0.24 | 4.1 | 3 | 1 | > 50 | 3.3 | > 50
14 | CC(C)C(=O)Nc1ccc(CN/C=C2\C(=O)NC(=O)c3ccc(I)cc32)cc1O [Example 335, N-[2-Hydroxy-4-({[(Z)-(6-iodo-1,3-dioxo-2,3-dihydroisoquinolin-4(1H)-ylidene)methyl]amino}methyl)phenyl]-2-methylpropanamide] | 0.02 | 5.9 | 4.5 | 5 | > 50 | 5.1 | 1.4 |  |  |  |  |  |  | 
15 | CCC(=O)Nc1ccc(CN/C=C2\C(=O)NC(=O)c3ccc(Br)cc32)cc1 [Example 321] | > 50 | 10 | 4.4 | 1.2 | > 50 | 0.84 | 3.6 |  |  |  |  |  |  | 
16 | O=C1NC(=O)c2ccccc2C1=CNCc1ccc(NS(=O)(=O)CC(F)(F)F)cc1 [Example 591, 2,2,2-Trifluoro-ethanesulfonic acid (4{[(1,3-dioxo-2,3-dihydro-1H-isoquinolin-4-ylidenemethyl)-amino]-methyl}-phenyl)-amide] |  |  |  |  |  |  |  | 23.2 | 40 | > 50 | 41.5 | 20.3 | 36.4 | 25.4
17 | O=C1NC(=O)c2ccc(I)cc2/C1=C/NCc1ccc(NC(=O)c2ccco2)c(O)c1 [Example 516, N-[2-Hydroxy-4-({[(Z)-(6-iodo-1,3-dioxo-2,3-dihydroisoquinolin-4(1H)-ylidene)methyl]amino}methyl)phenyl]-2-furamide] |  |  |  |  |  |  |  | 0.22 | 24.1 | 21.4 | 3.83 | > 50 | 18.2 | > 50
18 | CN1CCN(c2ccc(NC=C3C(=O)NC(=O)c4ccc(-c5ccc(CO)cc5)cc43)cc2)CC1 [Example 808, 6-(4-Hydroxymethyl-phenyl)-4-{[4-(4-methyl-piperazin-1-yl)-phenylamino]-methylene}-4H-isoquinoline-1,3-dione] |  |  |  |  |  |  |  | 0.38 | 8.6 | 5.4 | 1.6 | > 50 | 8 | > 50
19 | O=C1NC(=O)c2ccc(I)cc2/C1=C/Nc1ccc(N2CCN(Cc3ccco3)CC2)cc1 [Example 389, (4Z)-4-[({4-[4-(2-Furylmethyl)piperazin-1-yl]phenyl}amino)methylene]-6-iodoisoquinoline-1,3(2H,4H)-dione] | 1.66 | 29 | > 50 | 23 | > 50 | > 50 | > 50 |  |  |  |  |  |  | 
